Patent US20240158385A1, “NOVEL COMPOUNDS” (Cerevance, Inc., priority 2021, published 2024)

Target: T1, human KCNK13 (Homo sapiens, UniProt Q9HB14)
T1 construct: expressed in transfected cells
T1 sequence (Q9HB14 1-408): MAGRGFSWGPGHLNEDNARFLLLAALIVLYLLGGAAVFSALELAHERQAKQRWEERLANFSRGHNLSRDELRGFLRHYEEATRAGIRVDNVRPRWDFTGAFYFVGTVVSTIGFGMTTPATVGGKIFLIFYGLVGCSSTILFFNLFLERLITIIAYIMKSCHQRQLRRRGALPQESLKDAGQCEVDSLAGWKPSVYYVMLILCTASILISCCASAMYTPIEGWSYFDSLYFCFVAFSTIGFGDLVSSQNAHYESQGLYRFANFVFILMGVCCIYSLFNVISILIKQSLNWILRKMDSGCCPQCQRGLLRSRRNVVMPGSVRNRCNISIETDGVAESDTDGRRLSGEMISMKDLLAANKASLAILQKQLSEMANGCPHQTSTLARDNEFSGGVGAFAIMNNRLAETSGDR
Experiment: KCNK13 antagonist activity, thallium (Tl+) flux FLIPR assay
Format: cell-based
Details: not given
Summary of the method: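 HEK 293 cells stably expressing human KCNK13 loaded with Tl+-sensitive dye for 1 h at room temperature. Compounds (10-point half-log curves) preincubated 15 min before thallium sulfate stimulus, fluorescence tracked by FLIPR. IC50 from ten-point curves, each point the mean of two wells.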

**Q.** Which IC50 does the source give for `Cc1nonc1-c1nc2c(F)cccc2n1Cc1ccc(Cl)nc1` [Example 39, 3-[1-[(6-chloropyridin-3-yl)methyl]-4-fluoro-benzimidazol-2-yl]-4-methyl-1,2,5-oxadiazole] here?
**A.** Its IC50 is < 200 nM.

Same assay, conditions: HEK 293 cells stably expressing human KCNK13; Tl+ sensitive dye, FLIPR; compounds 15 minutes prior to thallium sulfate; 10 point half log curves from 10 PM; read-out: hKCNK13 IC50

**Q.** How did the IC50 turn out when `Cc1onc(-c2nc3ccccc3n2Cc2cccnc2)c1C` [Example 111, 4,5-dimethyl-3-[1-(pyridin-3-ylmethyl)benzimidazol-2-yl]isoxazole] was run?
**A.** Its IC50 is < 500 nM.

**Q.** How did the IC50 turn out when `Cc1nonc1-c1nc2cccc(Cl)c2n1Cc1ccc(C#N)nc1` (single isomer, unassigned) [Example 62, 5-[[7-chloro-2-(4-methyl-1,2,5-oxadiazol-3-yl)benzimidazol-1-yl]methyl]pyridine-2-carbonitrile] was run?
**A.** The IC50 was < 200 nM.

**Q.** How did the IC50 turn out when `Cc1nsnc1-c1nc2cccc(F)c2n1Cc1cccnn1` [Example 139, 3-(7-fluoro-1-(pyridazin-3-ylmethyl)-benzimidazol-2-yl)-4-methyl-1,2,5-thiadiazole] was run?
**A.** Its IC50 is < 100 nM.

**Q.** Which IC50 does the source give for `C=Cc1nsnc1-c1nc2ccccc2n1Cc1cccnc1` [Example 89, 3-[1-(pyridin-3-ylmethyl)benzimidazol-2-yl]-4-vinyl-1,2,5-thiadiazole] here?
**A.** Its IC50 is < 50 nM.

**Q.** `Cc1nonc1-c1nc2cccc(F)c2n1Cc1cccnc1` (single isomer, unassigned) [Example 122, 3-[7-fluoro-1-(pyridin-3-ylmethyl)benzimidazol-2-yl]-4-methyl-1,2,5-oxadiazole] was tested. Which IC50 did it give?
**A.** The IC50 was < 50 nM.

**Q.** Which IC50 does the source give for `N#Cc1ncc(Cn2c(-c3nonc3N)nc3c(F)cccc32)cn1` (single isomer, unassigned) [Example 26, 5-[[2-(4-amino-1,2,5-oxadiazol-3-yl)-4-fluoro-benzimidazol-1-yl]methyl]pyrimidine-2-carbonitrile] here?
**A.** The IC50 was < 100 nM.

**Q.** For `Nc1nonc1-c1nc2ccccc2n1Cc1ccnc(C(F)(F)F)c1` [Example 94, 4-[1-[[2-(trifluoromethyl)pyridin-4-yl]methyl]benzimidazol-2-yl]-1,2,5-oxadiazol-3-amine], which IC50 is on record?
**A.** Its IC50 is < 100 nM.

**Q.** Which IC50 does the source give for `Cn1nccc1-c1nc2ccccc2n1Cc1cccnc1` [Example 114, 2-(1-methylpyrazol-5-yl)-1-(pyridin-3-ylmethyl)benzimidazole] here?
**A.** Its IC50 is < 1000 nM.

**Q.** For `CNc1nsnc1-c1nc2cccc(F)c2n1Cc1cccnn1` [Example 143, 4-(7-fluoro-1-(pyridazin-3-ylmethyl)-benzimidazol-2-yl)-N-methyl-1,2,5-thiadiazol-3-amine], which IC50 is on record?
**A.** The IC50 was < 200 nM.

**Q.** `Nc1nonc1-c1nc2ccc(F)c(F)c2n1Cc1ccncc1` [Example 145, 4-(6,7-difluoro-1-(pyridin-4-ylmethyl)-benzimidazol-2-yl)-1,2,5-oxadiazol-3-amine] was tested. Which IC50 did it give?
**A.** The IC50 was < 50 nM.

**Q.** How did the IC50 turn out when `Nc1nonc1-c1nc2ccccc2n1Cc1cncc(C(F)(F)F)c1` [Example 95, 4-[1-[[5-(trifluoromethyl)pyridin-3-yl]methyl]benzimidazol-2-yl]-1,2,5-oxadiazol-3-amine] was run?
**A.** Its IC50 is < 100 nM.

**Q.** With `[2H]C([2H])(c1cccnc1)n1c(-c2nonc2C)nc2cccc(F)c21` (single isomer, unassigned) [Example 31, 3-[1-[dideuterio(pyridin-3-yl)methyl]-7-fluoro-benzimidazol-2-yl]-4-methyl-1,2,5-oxadiazole] as the compound, how does the IC50 read?
**A.** Its IC50 is < 50 nM.

**Q.** `Cc1nonc1-c1nc2c(F)cccc2n1Cc1ccc(S(C)(=O)=O)nc1` (single isomer, unassigned) [Example 138, 3-(4-fluoro-1-((6-(methylsulfonyl)pyridin-3-yl)methyl)-benzimidazol-2-yl)-4-methyl-1,2,5-oxadiazole] was tested. Which IC50 did it give?
**A.** Its IC50 is < 1000 nM.

**Q.** How did the IC50 turn out when `Cc1nonc1-c1nc2cccnc2n1Cc1ccc(C#N)nc1` [Example 50, 5-[[2-(4-methyl-1,2,5-oxadiazol-3-yl)imidazo[4,5-b]pyridin-3-yl]methyl]pyridine-2-carbonitrile] was run?
**A.** Its IC50 is < 100 nM.

**Q.** For `Nc1nonc1-c1nc2cccc(F)c2n1Cc1ccc(Cl)nn1` (single isomer, unassigned) [Example 148, 4-(1-((6-chloropyridazin-3-yl)methyl)-7-fluoro-benzimidazol-2-yl)-1,2,5-oxadiazol-3-amine], which IC50 is on record?
**A.** The IC50 was < 50 nM.

**Q.** For `N#Cc1cnc(Cn2c(-c3nonc3N)nc3cccc(F)c32)cn1` [Example 35, 5-[[2-(4-amino-1,2,5-oxadiazol-3-yl)-7-fluoro-benzimidazol-1-yl]methyl]pyrazine-2-carbonitrile], which IC50 is on record?
**A.** The IC50 was < 50 nM.

**Q.** `Nc1nonc1-c1nc2c(F)cccc2n1Cc1cncnc1` [Example 131, 4-[4-fluoro-1-(pyrimidin-5-ylmethyl)benzimidazol-2-yl]-1,2,5-oxadiazol-3-amine] was tested. Which IC50 did it give?
**A.** Its IC50 is < 100 nM.

**Q.** For `Cc1cnoc1-c1nc2ccccc2n1Cc1cccnc1` [Example 130, 4-methyl-5-[1-(pyridin-3-ylmethyl)benzimidazol-2-yl]isoxazole], which IC50 is on record?
**A.** Its IC50 is < 100 nM.

**Q.** How did the IC50 turn out when `Cc1nonc1-c1nc2ccc(F)c(F)c2n1Cc1cccnc1` [Example 56, 3-[6,7-difluoro-1-(pyridin-3-ylmethyl)benzimidazol-2-yl]-4-methyl-1,2,5-oxadiazole] was run?
**A.** Its IC50 is < 100 nM.

**Q.** How did the IC50 turn out when `Cc1ccsc1-c1nc2ccccc2n1Cc1cccnc1` [Example 100, 2-(3-methylthiophen-2-yl)-1-(pyridin-3-ylmethyl)benzimidazole] was run?
**A.** The IC50 was < 200 nM.

**Q.** Which IC50 does the source give for `Nc1nonc1-c1nc2ccccc2n1Cc1ccc(C(F)(F)F)nc1` [Example 97, 4-[1-[[6-(trifluoromethyl)pyridin-3-yl]methyl]benzimidazol-2-yl]-1,2,5-oxadiazol-3-amine] here?
**A.** Its IC50 is < 100 nM.

**Q.** Which IC50 does the source give for `Cc1nonc1-c1nc2ccccc2n1Cc1ccncc1` [Example 98, 3-methyl-4-[1-(pyridin-4-ylmethyl)benzimidazol-2-yl]-1,2,5-oxadiazole] here?
**A.** Its IC50 is < 100 nM.

**Q.** How did the IC50 turn out when `CCS(=O)(=O)c1ccc(Cn2c(-c3nonc3C)nc3ccccc32)cn1` [Example 180, 3-(1-((6-(ethylsulfonyl)pyridin-3-yl)methyl)-benzimidazol-2-yl)-4-methyl-1,2,5-oxadiazole] was run?
**A.** The IC50 was < 500 nM.

**Q.** For `Cc1nonc1-c1nc2ccccc2n1Cc1ccc(C#N)nc1` [Example 37, 5-[[2-(4-methyl-1,2,5-oxadiazol-3-yl)benzimidazol-1-yl]methyl]pyridine-2-carbonitrile], which IC50 is on record?
**A.** The IC50 was < 50 nM.

**Q.** Which IC50 does the source give for `Cc1nsnc1-c1nc2ccc(F)cc2n1Cc1ccc(C#N)nc1` [Example 80, 5-[[6-fluoro-2-(4-methyl-1,2,5-thiadiazol-3-yl)benzimidazol-1-yl]methyl]pyridine-2-carbonitrile] here?
**A.** The IC50 was < 1000 nM.

**Q.** How did the IC50 turn out when `Cc1nonc1-c1nc2ccccc2n1Cc1ccc(O)nc1` [Example 54, 5-[[2-(4-methyl-1,2,5-oxadiazol-3-yl)benzimidazol-1-yl]methyl]pyridin-2-ol] was run?
**A.** Its IC50 is < 500 nM.

**Q.** For `Cc1nocc1-c1nc2ccccc2n1Cc1cccnc1` [Example 112, 3-methyl-4-[1-(pyridin-3-ylmethyl)benzimidazol-2-yl]isoxazole], which IC50 is on record?
**A.** Its IC50 is < 500 nM.

**Q.** With `Nc1nonc1-c1nc2cccc(F)c2n1Cc1ccc(C(F)F)nn1` (single isomer, unassigned) [Example 172, 4-(1-((6-(difluoromethyl)pyridazin-3-yl)methyl)-7-fluoro-benzimidazol-2-yl)-1,2,5-oxadiazol-3-amine] as the compound, how does the IC50 read?
**A.** Its IC50 is < 200 nM.

**Q.** How did the IC50 turn out when `N#Cc1ncc(Cn2c(-c3nonc3N)nc3c(F)ccc(F)c32)cn1` [Example 28, 5-[[2-(4-amino-1,2,5-oxadiazol-3-yl)-4,7-difluoro-benzimidazol-1-yl]methyl]pyrimidine-2-carbonitrile] was run?
**A.** The IC50 was < 50 nM.

**Q.** `Cc1snnc1-c1nc2ccccc2n1Cc1cccnc1` [Example 102, 5-methyl-4-[1-(pyridin-3-ylmethyl)benzimidazol-2-yl]-1,2,3-thiadiazole] was tested. Which IC50 did it give?
**A.** The IC50 was < 200 nM.

**Q.** For `Nc1nsnc1-c1nc2c(F)cccc2n1Cc1cccnn1` (single isomer, unassigned) [Example 157, 4-(4-fluoro-1-(pyridazin-3-ylmethyl)-benzimidazol-2-yl)-1,2,5-thiadiazol-3-amine], which IC50 is on record?
**A.** The IC50 was < 200 nM.

**Q.** How did the IC50 turn out when `Cc1nonc1-c1nc2cccnc2n1Cc1ccc(C#N)nn1` [Example 18, 6-[[2-(4-methyl-1,2,5-oxadiazol-3-yl)imidazo[4,5-b]pyridin-3-yl]methyl]pyridazine-3-carbonitrile] was run?
**A.** The IC50 was < 500 nM.

**Q.** `Nc1nonc1-c1nc2cncc(F)c2n1Cc1cccnn1` (single isomer, unassigned) [Example 187, 4-(7-fluoro-1-(pyridazin-3-ylmethyl)-1H-imidazo[4,5-c]pyridin-2-yl)-1,2,5-oxadiazol-3-amine] was tested. Which IC50 did it give?
**A.** Its IC50 is < 500 nM.

**Q.** With `Cc1nonc1-c1nc2ccccc2n1Cc1ccc[n+]([O-])c1` [Example 76, 3-methyl-4-[1-[(1-oxidopyridin-1-ium-3-yl)methyl]benzimidazol-2-yl]-1,2,5-oxadiazole] as the compound, how does the IC50 read?
**A.** The IC50 was < 500 nM.

**Q.** For `Cc1nonc1-c1nc2cc(F)cc(F)c2n1Cc1cccnn1` (single isomer, unassigned) [Example 146, 3-(5,7-difluoro-1-(pyridazin-3-ylmethyl)-benzimidazol-2-yl)-4-methyl-1,2,5-oxadiazole], which IC50 is on record?
**A.** Its IC50 is < 50 nM.

**Q.** How did the IC50 turn out when `Nc1nonc1-c1nc2ccccc2n1Cc1ccccn1` [Example 115, 4-[1-(pyridin-2-ylmethyl)benzimidazol-2-yl]-1,2,5-oxadiazol-3-amine] was run?
**A.** The IC50 was < 1000 nM.

**Q.** How did the IC50 turn out when `N#Cc1ccc(Cn2c(-c3nonc3N)nc3cccnc32)nn1` [Example 177, 6-((2-(4-amino-1,2,5-oxadiazol-3-yl)-3H-imidazo[4,5-b]pyridin-3-yl)methyl)pyridazine-3-carbonitrile] was run?
**A.** Its IC50 is < 1000 nM.

**Q.** How did the IC50 turn out when `Nc1nonc1-c1nc2c(F)ccc(F)c2n1Cc1ccncc1` [Example 155, 4-(4,7-difluoro-1-(pyridin-4-ylmethyl)-benzimidazol-2-yl)-1,2,5-oxadiazol-3-amine] was run?
**A.** Its IC50 is < 50 nM.
